This note sets out measurements from patent publication US20230002334A1, “TRPM8 MODULATORS” (Givaudan SA, priority 2019, published 2023).

pEC50: −log10 of the molar value. A value given as a limit tells only on which side of the number the result lay.

In assay [1] the test system is panelists (mouth, mucosa). Description: Sensory studies in aqueous solution (trained panel, swilling in the mouth). It counts as in vivo, human. The note with it: 40 ppm in aqueous solution; for time of max cooling / Max. cooling: 20 mL swilled 60 seconds; for Max. cooling / Cooling after 1 h: averaged panel score on scale 0 to 10; for Cooling after 1 h: 1 h after swilling. The protocol: The compounds as listed below in Table 2 were dissolved at a concenteration of 1 wt-% in propylene glycol. These solutions were then dispensed in appropriate quantities into deionized water containing 0.5 wt-% Poloxamer 407 (which is a hydrophilic non-ionic surfactant, e.g., commercially available from SigmaAldrich) and 0.25 wt-% Cremaphor® RH40 (obtained from BASF) as solubilizer, to obtain the desired final concentration of 40 ppm (parts per milion) of the respective compound.
A trained group of panelists evaluated the aqueous solutions containing test compound by swilling 20 mL of the solution in the mouth for 60 seconds, followed by spitting, without rinsing the mouth afterwards for the duration of the evaluation. Panelists evaluated and recorded the cooling performance as well as other sensorial and organoleptic attributes at different timepoints over a period of two hours. Cooling performance was rated on a scale from 0 to 10 with 0 being no effect and 10 being freezing. Scores were averaged for all panelists and the cooling intensity qualified as “N” for “none” (score of 0), “L” for “low” (score above 0, up to 1), “M” for “medium” (score above 1, up to 4), “S” for “strong” (score above 4, up to 8) and “E” for “extreme” (score above 8), which are provided in Table 2. […] All tasted samples developed cooling sensation starting during swilling (almost immediately upon contact with the mucosa) and before expectorating.

For the next assay, the target named is T1, hTRPM8 (Homo sapiens, UniProt Q7Z2W7).
T1 construct: expressed in transfected cells
Description: Assay on TRPM8 modulators: calcium imaging (Fluo-4, Flexstation) in HEK293 cell line stably expressing hTRPM8. It counts as cell-based. Conditions: HEK293 cells stably expressing hTRPM8, calcium influx, sigmoidal dose-response fit; read-out: EC50. An outline of the steps: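 Calcium influx monitored by Fluo-4 (2.7 μM with […] probenecid, 1 h 37 °C loading) in HEK293 cells stably expressing hTRPM8, in HEPES buffer pH 7.4 with 2 mM CaCl2. Fluorescence read 15 s before and 105 s after adding serial compound dilutions. Maximal activation relative to solvent and 31.6 μM menthol; EC50 from sigmoidal fit.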

Another assay deals with panelists (mouth). The assay is described as follows: Sensory studies in model dentifrice (trained panel, tooth brushing). It counts as in vivo, human. The note with it: 100 ppm in model unflavored dentifrice; for time of max cooling / Max. cooling: 1 g brushed 60 seconds; for Max. cooling / Cooling after 1 h: averaged panel score on scale 0 to 10; for Cooling after 1 h: 1 h after brushing. The protocol: The compounds listed in Table 3 were dissolved at a concenteration of 1 wt-% in propylene glycol. These solutions were then dispersed in appropriate quantities to obtain the desired final concentration of 100 ppm (parts per milion) of the test compound into a model, unflavored dentifrice, the formula of which is given below (ingredients obtained from the suppliers respectively indicated in parenthesis).
A trained group of panelists evaluated the dentifrice containing a compound of formula (I), by brushing their teeth with 1 g of the dentifrice using a toothbrush for 60 seconds, followed by spitting, without rinsing the mouth afterwards for the duration of the evaluation. Panelists evaluated and recorded the cooling performance as well as other sensorial and organoleptic attributes at different timepoints over a period of two hours. Cooling performance was rated on a scale from 0 to 10 with 0 being no effect and 10 being freezing. Scores were averaged for all panelists and the cooling intensity qualified as “N” for “none” (score of 0), “L” for “low” (score above 0, up to 1), “M” for “medium” (score above 1, up to 4), “S” for “strong” (score above 4, up to 8) and “E” for “extreme” (score above 8), which are summarized below in Table 3. […] All tasted samples developed cooling sensation starting during brushing, before expectorating.

The pEC50 is the negative decadic logarithm of the EC50, by convention in mol/L.

T1 sequence (Q7Z2W7 whole entry): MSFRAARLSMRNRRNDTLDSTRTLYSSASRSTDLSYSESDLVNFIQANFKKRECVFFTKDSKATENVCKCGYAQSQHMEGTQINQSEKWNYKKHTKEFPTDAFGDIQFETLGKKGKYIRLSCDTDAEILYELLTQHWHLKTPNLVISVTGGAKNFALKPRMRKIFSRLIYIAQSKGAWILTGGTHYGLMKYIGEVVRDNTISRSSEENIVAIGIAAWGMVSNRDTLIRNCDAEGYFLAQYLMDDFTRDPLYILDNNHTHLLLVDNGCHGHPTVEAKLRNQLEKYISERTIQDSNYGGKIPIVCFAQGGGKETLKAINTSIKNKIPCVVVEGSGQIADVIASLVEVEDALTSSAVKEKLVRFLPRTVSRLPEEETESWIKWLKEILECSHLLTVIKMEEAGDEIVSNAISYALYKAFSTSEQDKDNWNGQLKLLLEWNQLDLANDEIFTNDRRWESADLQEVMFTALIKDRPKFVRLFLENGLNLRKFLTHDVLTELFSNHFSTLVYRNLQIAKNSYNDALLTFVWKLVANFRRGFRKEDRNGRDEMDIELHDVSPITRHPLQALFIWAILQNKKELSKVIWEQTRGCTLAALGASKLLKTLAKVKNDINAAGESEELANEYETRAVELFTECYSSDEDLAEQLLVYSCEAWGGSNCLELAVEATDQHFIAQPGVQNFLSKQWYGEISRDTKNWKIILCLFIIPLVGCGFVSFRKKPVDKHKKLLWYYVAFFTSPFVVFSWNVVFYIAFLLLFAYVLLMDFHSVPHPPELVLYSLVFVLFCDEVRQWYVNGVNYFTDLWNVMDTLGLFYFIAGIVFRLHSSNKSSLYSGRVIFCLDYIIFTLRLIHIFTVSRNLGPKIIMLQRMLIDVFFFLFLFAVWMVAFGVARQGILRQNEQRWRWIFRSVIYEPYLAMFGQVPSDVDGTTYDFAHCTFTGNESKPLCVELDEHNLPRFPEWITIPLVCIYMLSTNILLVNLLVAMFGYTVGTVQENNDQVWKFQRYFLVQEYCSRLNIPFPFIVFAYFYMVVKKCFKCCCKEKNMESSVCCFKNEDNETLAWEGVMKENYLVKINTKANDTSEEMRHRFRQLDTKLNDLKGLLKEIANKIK

With `Cc1ccccc1[C@@]1(C)C[C@@H]2[C@@H]([C@@H](C)C1)N(C)OC2(C)C` (racemic) [Compound 46, rac-(3aR,5R,7S,7aR)-1,3,3,5,7-pentamethyl-5-(o-tolyl)octahydrobenzo[c]isoxazole], in assay [1], the “time of max cooling” value was determined as 10 min; the Max. cooling result is reported as “S (“S” for “strong” (score above 4, up to 8))”; the “Cooling after 1 h” value was “M (“M” for “medium” (score above 1, up to 4))”. Further, on hTRPM8, the pEC50 was > 7.30. In the assay on panelists (mouth), the “time of max cooling” value was determined as 20 min; the Max. cooling entry is “S (“S” for “strong” (score above 4, up to 8))”; the “Cooling after 1 h” value was “M (“M” for “medium” (score above 1, up to 4))”.
As to `C[C@H]1C[C@@](C)(c2ccccc2)C[C@@H]2[C@@H]1N(C)OC2(C)C` (racemic) [Compound 48, rac-(3aR,5R,7S,7aR)-1,3,3,5,7-pentamethyl-5-phenyloctahydrobenzo[c]isoxazole], in assay [1], the “time of max cooling” value came out at 10 min; the Max. cooling result is reported as “S (“S” for “strong” (score above 4, up to 8))”; the “Cooling after 1 h” value was “M (“M” for “medium” (score above 1, up to 4))”. In addition, the pEC50 on hTRPM8 is 6.52 to 7.30. Moreover, in the assay with panelists (mouth), the “time of max cooling” value came to 5 min; the Max. cooling entry is reported as “M (“M” for “medium” (score above 1, up to 4))”; the “Cooling after 1 h” value is listed as “L (“L” for “low” (score above 0, up to 1))”.
As to `C[C@H]1C[C@@](C)(c2ccc(F)cc2)C[C@@H]2[C@@H]1N(C)OC2(C)C` (racemic) [Compound 102, rac-(3aR,5R,7S,7aR)-5-(4-fluorophenyl)-1,3,3,5,7-pentamethyloctahydrobenzo[c]isoxazole], in assay [1], the “time of max cooling” value was found to be 10 min; the Max. cooling entry is given as “S (“S” for “strong” (score above 4, up to 8))”; the “Cooling after 1 h” value was “M (“M” for “medium” (score above 1, up to 4))”. Also, the pEC50 at hTRPM8 is > 7.30. In addition, in the assay on panelists (mouth), the “time of max cooling” value is 10 min; the Max. cooling entry is on record as “M (“M” for “medium” (score above 1, up to 4))”; the “Cooling after 1 h” value is on record as “M (“M” for “medium” (score above 1, up to 4))”.
With `Cc1ccc(C#N)cc1[C@@]1(C)C[C@@H]2[C@@H]([C@@H](C)C1)N(C)OC2(C)C` (stereo in doubt) [Compound 135, rac-4-methyl-3-((3aR,5R,7S,7aR)-1,3,3,5,7-pentamethyloctahydrobenzo[c]isoxazol-5-yl)benzonitrile], in assay [1], the “time of max cooling” value was determined as 10 min; the Max. cooling entry is on record as “E (“E” for “extreme” (score above 8))”; the “Cooling after 1 h” value was “M (“M” for “medium” (score above 1, up to 4))”. Also, at hTRPM8, the pEC50 is > 7.30. Moreover, in the assay on panelists (mouth), the “time of max cooling” value was 5 min; the Max. cooling entry is reported as “S (“S” for “strong” (score above 4, up to 8))”; the “Cooling after 1 h” value is on record as “M (“M” for “medium” (score above 1, up to 4))”.
